Laboratory results reported in patent US6355261B1, “Ultraviolet radiation absorbing waxes useful in cosmetic compositions” (priority 1999, dated 2002).

Experiments:
[1] = Solubility of HDDS in esters of dibasic acids; assay type: physicochemical
[2] = Ultraviolet radiation transmittance and SPF of sunscreen lotions, LABSPHERE Ultraviolet Transmittance Analyzer
Method: Sunscreen lotion compositions were made and tested for UV absorbance. A control sample sunscreen lotion was made without a compound of formula (I) and a test sample was made in accordance with the invention, using a compound of formula (I) wherein n is 6 (HDDS). Table 1 summarizes the composition of the control and HDDS sunscreen lotions, by wt. %.
To prepare the sunscreen lotions, the A phase ingredients were blended together and heated to 90° C. to dissolve the oxybenzone. Next, the B phase ingredients were added with stirring until homogeneous. In a separate vessel, EDTA was dissolved in water and heated to 85° C. A preblended mixture of preservative, butylene glycol, and glycerin was added to the EDTA/water solution. In a separate vessel, carbomer was dispersed in 50 g water and set aside. With homogenization, the A+B oil phase was added to the C water phase. Next, the pre-dispersed carbomer D phase was added to the A+B+C mixture. While maintaining the temperature at 85° C., the mixture was homogenized for about 10 minutes, and then removed from heat and stirred with a propellor while cooling. When the temperature was below 40° C., the neutralizer E was slowly added and the mixture was stirred until a smooth, homogeneous lotion resulted.
Ultraviolet radiation transmittance and SPF of the control and HDDS samples were measured over the range 290 to 400 nm using a LABSPHERE Ultraviolet Transmittance Analyzer. Five scans were performed on each sample. Critical Wavelength (nm) and SPF data are reported in Table 2 below for the control and HDDS samples.
The ordinate represents absorbance, in units log(base 10)*(1/transmittance (%)), and the abscissa represents wavelength in nanometers.

[3] = HDDS in a sunscreen lotion versus control lotion

Structure (SMILES): O=C(OCCCCCCOC(=O)c1ccccc1O)c1ccccc1O [HDDS, hexanediol disalicylate]
- soluble in diisopropyl adipate ([1]; solvent diisopropyl adipate): at least 5 % by weight
- soluble in dilsopropyl sebacate ([1]; solvent dilsopropyl sebacate): at least 5 % by weight
- soluble in dioctyl adipate ([1]; solvent dioctyl adipate): at least 5 % by weight
- soluble in dioctyl maleate ([1]; solvent dioctyl maleate): at least 5 % by weight
- soluble in dioctyl sebacate ([1]; solvent dioctyl sebacate): at least 5 % by weight
- UV absorbance of the lotion ([2]; FIG. 1, average of five scans, versus control sample): increases UV absorbance of the lotion at every wavelength of radiation measured
- SPF value of the lotion [2, 3]: boosts the SPF value
- transmittance of UVA and UVB radiation [2, 3]: reduces the transmittance of UVA and UVB radiation
